Reference: patent US8058414B2, “Unnatural polymerase substrates that can sustain enzymatic synthesis of double stranded nucleic acids from a nucleic acid template and methods of use” (Life Technologies Corporation, priority 2008, dated 2011)

Experiments:
[1] = system: Therminator (NEB) DNA polymerases; assay: Evaluation of termination and mis-incorporation properties of γ-substituted-dNTP's (capillary electrophoresis of primer extension); type: biochemical; conditions: for termination properties (overall) / extension to the first correct base / consumption of the primer / further incorporation over the 2nd correct base (template 2) / activity / incorporation / mis-incorporation: 1 μM substrate; for extension to the first correct base / consumption of the primer: after 10 minutes; for further incorporation over the 2nd correct base (template 2): after 60 minutes
Protocol: FIGS. 21A-21D are electropherograms showing the termination properties of γ-phosphate substituted dUTP analogs having an O-propargyl-S-substituent at the 5 position over a p(dA) template.
[drawing 12] wherein R1 is a methyl group. The substrate concentration was 1 μM. FIG. 21A is an electropherogram for the primer. FIGS. 21B-D are the electropherograms after 10, 30 and 60 minutes of extension, respectively.
FIGS. 22A-22D are electropherograms showing the mis-incorporation properties of γ-phosphate substituted dUTP analogs having an O-propargyl-S-substituent at the 5 position and a benzyl group as a γ-phosphate substituent. The nucleotide analog used in these experiments had the same general structure as set forth above in the description of FIGS. 21A-21D. For these experiments, all reactions were conducted for 10 minutes at a substrate concentration of 1 μM using Mg^2+. Two templates were used:
General procedure for evaluation of termination properties of γ-substituted-dNTP's comprising silver ion cleavable linker arms attached to the base. All evaluations performed with Therminator (NEB) DNA polymerases were 3′ to 5′ exonuclease negative. Three types of templates were used in testing each substrate, where N denotes the complement of the base that is being evaluated for its termination properties, and the underlined portion of the target is the priming site: 1) a single correct base immediately after the priming site followed by incorrect bases; 2) two correct bases immediately after the priming site followed by incorrect bases; 3) each incorrect base followed by the correct base and then additional incorrect bases. The first two primers were used to show incorporation and termination, while the third set of templates was used to study mis-incorporation. All substrates were evaluated by capillary electrophoresis with analysis for extension of 0, 1, or 2 bases from a fluorescein labeled −21 M13 primer (the binding site of the primer corresponds to the underlined portion of the templates shown below).
Templates were pre-hybridized to the primer at 2 μM final concentration. The final assay concentration of the primer/template hybrid was 40 nM.
Unless otherwise noted, substrates were tested at 1 μM final concentration with 1 μL of the appropriate commercial enzyme at the concentration supplied by the manufacturer (usually 2-5 U/μL in 2× buffer composed of 40 mM Tris, pH 7.6, 10 mM DTT, 10 mM […] and 30 mM isocitrate). Each buffer was used at 1× in the final assay.
Generally, assays were set up as 10 μL final volume and run at 65° C. The termination properties were evaluated at 10 minutes, 30 minutes and 1 hr. At the end of each reaction, […] of the reaction mix was pipetted into 25 μL of 0.5 M EDTA, to quench the reaction, in a streptavidin coated microtiter plate well (Applied Biosystems Part No. 4357279) to capture the biotin labeled template for purification of the primer. Plates were shaken at room temperature for 10 minutes. Excess fluid was discarded and the microtiter wells were washed 3× with 4×SSC containing 0.1% Tween 20. Plates were centrifuged briefly upside down to remove excess buffer. To remove the primer from the template, 20 μL of HiDi Formamide (Applied Biosystems Part No. 4311320) was added with size ladder (LIZ® dye-labeled SNPlex™ internal size standard) to each well. The plate was incubated at 50° C. with shaking for 10 minutes. […] of the HiDi Formamide solution was transferred to a 96 well plate (Applied Biosystems Part No. N8010560) and covered with a 96 well plate septa (Applied Biosystems Part No. 4315933). Samples were separated electrophoretically on an AB 3100XL with a 36 cm capillary with POP6™ polymer separating media. The peaks were analyzed with either GeneScan® Software or Peak Scanner™ software, both from Applied Biosystems.

[2] = molecular target: T1, Klenow enzyme (Escherichia coli, UniProt P00582); assay: Polymerase extension of FAM labeled primer over (AAG)14 template; type: biochemical; conditions: for extension over (AAG)14 template (electropherogram): FIG. 12, with dCTP, FAM labeled primer
T1 construct: Klenow enzyme at 37° C. for 1 minute
T1 sequence (P00582 324-928): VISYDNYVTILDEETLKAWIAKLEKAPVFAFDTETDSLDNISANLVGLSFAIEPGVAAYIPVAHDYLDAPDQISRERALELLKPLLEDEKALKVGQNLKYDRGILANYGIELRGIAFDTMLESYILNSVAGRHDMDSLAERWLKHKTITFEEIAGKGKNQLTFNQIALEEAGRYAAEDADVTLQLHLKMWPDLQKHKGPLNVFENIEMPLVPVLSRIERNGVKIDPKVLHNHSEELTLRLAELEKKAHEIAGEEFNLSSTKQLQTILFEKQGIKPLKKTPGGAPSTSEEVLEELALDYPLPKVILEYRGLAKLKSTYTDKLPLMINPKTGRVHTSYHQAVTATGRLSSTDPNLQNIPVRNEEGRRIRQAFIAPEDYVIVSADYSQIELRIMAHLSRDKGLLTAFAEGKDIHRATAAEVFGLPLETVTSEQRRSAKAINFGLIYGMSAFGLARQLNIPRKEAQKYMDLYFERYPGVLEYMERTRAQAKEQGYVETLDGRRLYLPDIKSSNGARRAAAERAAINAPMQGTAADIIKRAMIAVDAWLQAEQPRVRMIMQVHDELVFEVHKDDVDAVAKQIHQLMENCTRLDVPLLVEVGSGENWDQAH
Protocol: In order to determine if a polymerase would continue to extend an unnatural DNA (i.e., a DNA including moieties not present in natural DNA) comprising residues having amino groups, an experiment was designed using aminopropargyl-dUTP (deoxyuridine triphosphate) and dCTP (deoxycytidine triphosphate) which yields extended DNA having residues with terminal amino functional groups on the incorporated dUTP moieties. The dUTP used is represented by the formula: […]
The experiment was conducted using an FAM (i.e., 6-carboxyfluorescein) labeled primer over an (AAG)14 [SEQ ID NO: 1] template.
These substrates were tested against the same template/primer system used in the experiments shown in FIGS. 12A and 12B {i.e., Klenow enzyme at 37° C. for 1 minute over an (AAG)14 [SEQ ID NO: 1] template}. The concentration of the nucleotides for this experiment was 5 μM. The results of this experiment are summarized in the electropherogram of FIG. 13C.
Similar experiments were conducted over the same template for natural dCTP/dTTP, with results shown in the electropherogram of FIG. 13A, and the methylpropynyl analogs of these substrates, with results shown in the electropherogram of FIG. 13B.

[3] = 5 μM substrate, after 30 minutes

γ-methyl-dUTP [compound 26]
termination properties (overall) [1]: excellent termination properties
extension to the first correct base / consumption of the primer [1]: almost complete consumption of the primer
extension to the first correct base / consumption of the primer ([1]; listed as drawing 12): almost complete
further incorporation over the 2nd correct base (template 2) [1]: No further incorporation is observed
further incorporation over the 2nd correct base (template 2) ([1]; listed as drawing 12): no observable incorporation
incorporation into the AA template ([1]; FIG. 22B, 10 minutes, 1 μM, Mg2+): is incorporated into the AA template
mis-incorporation over the dG or dT in the GA and TA templates ([1]; FIG. 22C-D, 10 minutes, 1 μM, Mg2+): is not mis-incorporated

C[n+]1ccn(CCOP(=O)(O)OP(=O)(O)OP(=O)(O)OCC2OC(n3ccc(N)nc3=O)CC2O)c1 (stereo not drawn) [compound 28, γ-(2-(N-(3-methylimidazolium))-ethyl)-dCTP]
activity [1]: quite low
incorporation ([1]; after 1 hr.): significant incorporation
mis-incorporation ([1]; after 1 hr.): no mis-incorporation is observed
consumption of the primer [1, 3]: completely consumed
extension past the first base on the GG template [1, 3]: only a trace of extension

NCC#Cc1cn([C@H]2C[C@H](O)[C@@H](COP(=O)(O)OP(=O)(O)OP(=O)(O)O)O2)c(=O)[nH]c1=O [aminopropargyl-dUTP]
extension over (AAG)14 template (electropherogram) ([2]; 42 base target template): poor extension
extent of extension over the template ([2]; FIG. 12B, 42 base target template): ≤ 14 bases

methylpropynyl dUTP
extension over (AAG)14 template (electropherogram) ([2]; 42 base target template): extension to a single product

CC#CCNC(=O)CO
synthesis of the extension product over (AAG)14 template ([2]; FIG. 13, Klenow enzyme at 37° C. for 1 minute, nucleotides 5 μM): excellent synthesis of the extension product

C[n+]1ccn(CCOP(=O)(O)OP(=O)(O)OP(=O)(O)OC[C@H]2O[C@@H](n3cnc4c(=O)[nH]c(N)nc43)C[C@@H]2O)c1 [compound 29, γ-(2-(N-(3-methylimidazolium))-ethyl)-dGTP]
activity [1]: quite low
incorporation ([1]; after 1 hr.): significant incorporation
mis-incorporation ([1]; after 1 hr.): no mis-incorporation is observed
consumption of the primer ([1]; 4 μM substrate, after 1 hr.): completely consumed
extension past the first base on the CC template ([1]; 4 μM substrate, after 1 hr.): only a trace of extension

Nc1ncnc2c1ncn2[C@H]1C[C@H](O)[C@@H](COP(=O)(O)OP(=O)(O)OP(=O)(O)OCc2ccccc2)O1 [compound 27, γ-benzyl-dATP]
termination properties (overall) [1]: excellent termination properties
extension to the first correct base / consumption of the primer [1]: almost complete consumption of the primer
further incorporation over the 2nd correct base (template 2) [1]: no further incorporation is observed
